Test results taken from article PMC5291822 (Bioorganic & medicinal chemistry, 2016).

Target: T1, human GVIA iPLA2 (Homo sapiens, UniProt O60733)
T1 sequence (O60733 1-806): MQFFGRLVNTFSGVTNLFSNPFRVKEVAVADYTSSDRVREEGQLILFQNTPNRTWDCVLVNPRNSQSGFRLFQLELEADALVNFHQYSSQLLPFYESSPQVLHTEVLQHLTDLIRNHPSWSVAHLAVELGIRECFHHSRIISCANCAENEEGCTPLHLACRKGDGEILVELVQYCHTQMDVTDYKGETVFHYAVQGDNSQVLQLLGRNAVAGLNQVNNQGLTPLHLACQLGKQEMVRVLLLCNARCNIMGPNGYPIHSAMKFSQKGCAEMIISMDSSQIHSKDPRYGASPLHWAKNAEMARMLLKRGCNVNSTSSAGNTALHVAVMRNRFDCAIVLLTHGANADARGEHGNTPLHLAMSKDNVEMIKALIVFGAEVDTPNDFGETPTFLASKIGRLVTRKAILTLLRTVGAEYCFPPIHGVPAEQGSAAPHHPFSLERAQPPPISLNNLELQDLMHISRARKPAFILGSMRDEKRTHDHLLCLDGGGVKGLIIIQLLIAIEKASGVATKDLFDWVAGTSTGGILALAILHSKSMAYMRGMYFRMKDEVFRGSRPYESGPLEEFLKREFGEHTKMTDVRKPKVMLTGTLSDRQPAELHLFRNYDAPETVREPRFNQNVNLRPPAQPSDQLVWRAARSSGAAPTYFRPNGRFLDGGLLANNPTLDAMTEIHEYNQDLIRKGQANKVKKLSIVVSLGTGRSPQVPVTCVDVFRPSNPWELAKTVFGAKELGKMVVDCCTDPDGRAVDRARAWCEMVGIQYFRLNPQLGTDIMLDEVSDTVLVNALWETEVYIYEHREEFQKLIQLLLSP
Test: mixed micelle modified Dole assay, GVIA iPLA2
Type: biochemical
Settings: for XI(50) GVIA iPLA2: mole fraction of inhibitor in total substrate interface giving 50% inhibition

CCCC[C@H](NC(=O)C(=O)CCCCc1ccccc1)C(=O)NCC(=O)O [13a, (S)-2-(2-(2-Oxo-6-phenylhexanamido)hexanamido)acetic acid]
inhibitory activity on GVIA iPLA2 (in words): totally inactive

CCCC[C@H](NC(=O)C(=O)CCCCc1ccc2ccccc2c1)C(=O)NCC(=O)O [13b, (S)-2-(2-(6-(Naphthalen-2-yl)-2-oxohexanamido)hexanamido) acetic acid]
inhibitory activity on GVIA iPLA2 (in words): totally inactive

CCCC[C@@H](COCC(=O)O)NC(=O)C(=O)CCCCc1ccc(OC)cc1 [20d, (S)-2-((2-(6-(4-Methoxyphenyl)-2-oxohexanamido)hexyl)oxy)acetic acid]
inhibitory activity on GVIA iPLA2 (in words): totally inactive

CCCC[C@H](NC(=O)C(=O)CCCCc1ccc(OC)cc1)C(=O)NCC(=O)OC(C)(C)C [compound 12c, (S)-tert-Butyl 2-(2-(6-(4-methoxyphenyl)-2-oxohexanamido)hexanamido)acetate]
IC50: 6.6 µM
XI(50) GVIA iPLA2: 0.012 mole fraction

CCCC[C@H](NC(=O)C(=O)CCCCc1ccc(OC)cc1)C(=O)NCCCC(=O)OC(C)(C)C [compound 12e, (S)-tert-Butyl 4-(2-(6-(4-methoxyphenyl)-2-oxohexanamido)hexanamido)butanoate]
IC50: 3.8 µM
XI(50) GVIA iPLA2: 0.007 mole fraction
times more potent inhibition of GVIA iPLA2 than of GIVA cPLA2 (selectivity GVIA iPLA2 over GIVA cPLA2): around 13 times

COc1ccc(CCCCC(=O)C(=O)N[C@@H](CC(C)C)C(=O)NCC(=O)OC(C)(C)C)cc1 [compound 22a, (S)-tert-Butyl 2-(2-(6-(4-methoxyphenyl)-2-oxohexanamido)-4-methylpentanamido)acetate]
IC50: 13 µM
XI(50) GVIA iPLA2: 0.024 mole fraction

CCCC[C@H](NC(=O)C(=O)CCCCc1ccc(OC)cc1)C(=O)NCC(=O)OCc1ccccc1 [compound 31a, (S)-Benzyl 2-(2-(6-(4-methoxyphenyl)-2-oxohexanamido)hexanamido)acetate]
IC50: 14 µM
XI(50) GVIA iPLA2: 0.026 mole fraction
